# Data reported in patent publication US20240335462A1, “SULFUR/PHOSPHORUS-CONTAINING ARYL COMPOUND AND APPLICATION THEREOF” (MEDSHINE DISCOVERY INC., priority 2021, published 2024).
# Counter-ions that a name gives are not always drawn. Like-named read-outs stand apart in the source and are kept apart here. Marks after values point to notes of the source that are not given here.
# What was measured:
# [1] = target: Ba/F3-FL-TYK2-E957D cells (Homo sapiens, UniProt P29597, E957D, cells depend on it); assay: Proliferation of Ba/F3-FL-TYK2-E957D cells (CellTiter-Glo); format: cell-based, mouse; settings: 72 hours, read-out: Half maximal inhibitory concentration IC50 for cells Ba/F3-FL-TYK2-E957D
# Ba/F3-FL-TYK2-E957D cells, sequence (P29597 whole entry E957D): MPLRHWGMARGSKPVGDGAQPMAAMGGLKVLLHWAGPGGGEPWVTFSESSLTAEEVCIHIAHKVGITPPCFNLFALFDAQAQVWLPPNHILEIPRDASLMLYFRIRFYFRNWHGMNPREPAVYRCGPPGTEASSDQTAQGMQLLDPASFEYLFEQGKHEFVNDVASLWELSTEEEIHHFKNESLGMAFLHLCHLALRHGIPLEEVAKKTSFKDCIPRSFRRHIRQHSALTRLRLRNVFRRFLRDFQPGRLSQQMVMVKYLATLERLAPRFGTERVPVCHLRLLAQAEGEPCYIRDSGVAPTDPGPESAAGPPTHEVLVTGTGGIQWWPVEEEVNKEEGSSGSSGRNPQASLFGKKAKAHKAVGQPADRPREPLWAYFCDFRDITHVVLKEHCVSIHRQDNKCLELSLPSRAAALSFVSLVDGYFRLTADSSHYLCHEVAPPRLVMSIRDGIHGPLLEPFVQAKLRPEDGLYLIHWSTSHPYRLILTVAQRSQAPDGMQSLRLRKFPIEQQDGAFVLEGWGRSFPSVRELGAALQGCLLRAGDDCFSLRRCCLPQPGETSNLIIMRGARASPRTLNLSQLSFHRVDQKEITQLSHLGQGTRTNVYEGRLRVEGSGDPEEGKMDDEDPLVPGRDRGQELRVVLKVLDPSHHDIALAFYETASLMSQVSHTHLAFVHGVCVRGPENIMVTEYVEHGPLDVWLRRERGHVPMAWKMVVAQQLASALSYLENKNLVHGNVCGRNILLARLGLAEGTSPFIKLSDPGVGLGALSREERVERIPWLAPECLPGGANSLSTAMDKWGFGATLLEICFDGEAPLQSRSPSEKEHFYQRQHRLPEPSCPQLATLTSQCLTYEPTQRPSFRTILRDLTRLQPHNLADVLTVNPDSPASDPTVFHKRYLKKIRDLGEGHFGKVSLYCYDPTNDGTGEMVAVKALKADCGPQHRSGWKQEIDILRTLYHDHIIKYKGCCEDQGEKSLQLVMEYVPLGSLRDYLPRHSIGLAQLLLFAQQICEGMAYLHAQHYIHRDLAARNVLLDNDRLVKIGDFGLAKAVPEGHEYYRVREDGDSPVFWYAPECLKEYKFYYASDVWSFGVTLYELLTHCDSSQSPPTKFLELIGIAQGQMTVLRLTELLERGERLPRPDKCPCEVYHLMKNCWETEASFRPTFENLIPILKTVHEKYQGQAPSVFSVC
# Text: Adenosine triphosphate (ATP) serves as a universal energy carrier in various life processes, representing the smallest unit of energy storage and transfer. The CellTiter-Glo™ Luminescent Cell Viability Assay Kit utilizes luciferase as a detection agent. During the luminescent process, luciferase requires the participation of ATP. By adding CellTiter-Glo™ reagent to the cell culture medium and measuring the luminescence, the light signal was directly proportional to the amount of ATP in the system, and ATP was positively correlated with the number of viable cells. Therefore, cell proliferation can be detected by measuring ATP content using the CellTiter-Glo kit. In this test, the cell lines used were Ba/F3-FL-TYK2-E957D and Ba/F3-TEL-TYK2. Ba/F3-FL-TYK2-E957D cells can stably express the exogenously introduced human TYK2-E957D gene, and the TYK2-E957D gene sequence contains both JH1 and JH2 domains. On the other hand, Ba/F3-TEL-TYK2 cells can stably express the exogenously introduced human TEL-TYK2 gene, and the TEL-TYK2 gene sequence contains only the JH1 domain of TYK2.
# The cell lines were cultured in an incubator at 37° C. with 5% CO2. Regular passaging was performed, and cells in the logarithmic growth phase were selected for plating.
# • a) The test compounds were prepared into a 10 mM solution with DMSO, and then diluted to 0.3 or 1 mM with DMSO. • b) Preparation of 1000× compound storage plate (tube): The compounds were 3-fold serially diluted from the highest concentration to the lowest concentration, creating 9 different concentrations. • c) Preparation of 20× compound working solution: 49 μL of cell culture medium was added to a flat-bottomed 96-well transparent drug plate. From the 1000× compound storage plate, 1 μL of the compound was pipetted into the cell culture medium in the 96-well transparent drug plate. In the solvent control, 1 μL of DMSO was added. After the compound or DMSO was added, the mixture was homogenized using a multi-channel pipette.
# • a) Cells were stained with trypan blue and viable cells were counted to ensure a cell viability of 90% or more. • b) 95 μL of cell suspension (2000 cells/well) was added to each well of the compound assay cell plate, and cell-free culture medium containing 0.1% DMSO was added to the Min control wells. • c) Administration in the compound assay cell plate: 5 μL of 20× compound working solution was added to the cell culture plate. 5 μL of DMSO-cell culture medium mixture was added to the Max control wells. The final concentration of DMSO was 0.1%. • d) The culture plate was then incubated in an incubator at 37° C. with 5% CO2 for 72 hours.
# The following steps were conducted in accordance with the instructions of the Promega CellTiter-Glo Luminescent Cell Viability Assay Kit (Promega-G7573). • a) CellTiter-Glo buffer was thawed and brought to room temperature. • b) CellTiter-Glo substrate was also brought to room temperature. • c) CellTiter-Glo buffer was added to a bottle of CellTiter-Glo substrate to dissolve the substrate, thereby preparing CellTiter-Glo working solution. • d) The mixture was slowly vortexed and shaken to be fully dissolved. • e) The cell culture plate was removed and allowed to equilibrate to room temperature for 10 minutes. • f) 50 μL (equal to half the volume of cell culture medium in each well) of CellTiter-Glo working solution was added to each well. • g) The culture plate was shaken on an orbital shaker for 2 minutes to induce cell lysis. • h) The plate was then left at room temperature for 10 minutes to stabilize the luminescent signal. • i) The luminescent signal was detected using a SpectraMax Paradigm plate reader.
# Data analysis was conducted using GraphPad Prism 5.0 software. Nonlinear S-curve regression was employed to fit the data and generate dose-response curves. From these curves, the IC50 values were calculated.
# [2] = Pharmacokinetic testing in mice; format: in vivo, male CD-1 mice; settings: mouse; for Vd / AUC(0-t) / half-life / C0 / bioavailability / Cmax / Tmax: male, CD-1, plasma; for Vd: read-out: Apparent volume of distribution Vd; for AUC(0-t): read-out: Area under the curve AUC0-last; for half-life: read-out: Half-life T1/2 (converted); for C0: read-out: Starting concentration C0; for bioavailability: read-out: Bioavailability F %; for Cmax: read-out: Peak concentration Cmax; for Tmax: read-out: Time to peak concentration Tmax
# Protocol: The objective was to study the pharmacokinetic behavior of the compound of the present disclosure in mice and evaluate the pharmacokinetic characteristics, using male CD-1 mice aged 7 to 9 weeks as test animals. The drug concentrations in plasma at different time points after a single intravenous injection (IV) and oral administration (PO) of the compound were determined using LC/MS/MS.
# The pharmacokinetic characteristics of the compound in rodents following intravenous injection and oral administration were tested using a standard protocol. Test animals were fasted for 10 to 14 hours before administration and allowed to feed 4 hours post-administration. The compound was prepared into a clear solution with the appropriate solvent for both IV (intravenous injection) and PO (oral gavage) administration. The solvent was 10% DMSO+10% solutol+80% (10% HP-β-CD aqueous solution). Whole blood samples were collected within 24 hours, centrifuged at 6000 g for 3 minutes, and the supernatant was separated to obtain plasma samples. Protein precipitation was performed by adding four times the volume of acetonitrile solution containing internal standard to the plasma samples. After centrifugation, the supernatant was added with an equal volume of water and then centrifuged before being subjected to LC-MS/MS analysis for quantifying plasma drug concentration. Pharmacokinetic parameters such as peak concentration, time to peak concentration, clearance, half-life, area under the drug-time curve, and bioavailability were calculated.
# [3] = system: IL-23-induced psoriasis-like skin lesions; assay: Mouse psoriasis-like model induced by IL-23; format: in vivo, C57BL/6 mice; parameters: Total score for epidermal hyperplasia of ear pinnae / AUC of total score for epidermal hyperplasia of ear pinnae / Pathological score: Degree of keratinization / Pathological score: Epidermal thickness / Pathological score: Dermal thickness / Pathological score: Inflammatory cell infiltration / Comprehensive pathological score: scale not given here
# Text: The purpose of this experiment was to evaluate the prophylactic and therapeutic effect of the test substance on IL-23-induced psoriasis-like skin lesions in mice by intradermal injection of IL-23 into the ear pinnae in a psoriasis-like skin lesion model.
# Female C57BL/6 mice of qualified body weight were randomly divided into groups, with 6 mice per group. The grouping and administration information was as follows. The groups were: blank control group, model group, positive control Ustekinumab (5 mg/kg) group, WX-011A hydrochloride (30, 50 mg/kg) group, and WX-020 sulfate (30, 50 mg/kg) group. Except for the blank control group, the animals in the other groups received an intradermal injection of IL-23 (3 μg/10 μL/mouse/day, QD) in the right ear for 8 consecutive days (Day 0 to Day 7). The blank control group received an intradermal injection of an equal volume of saline solution (10 μL/mouse/day, QD) in the right ear for 8 consecutive days (Day 0 to Day 7). Concurrent with model induction, the solvent or test drug was orally administered twice a day (Bid) at 6-hour intervals for 8 consecutive days (Day 0 to Day 7). The positive control was subcutaneously injected on Day 0 and Day 3 (a total of 2 doses). During the administration period, the body weight of the animals was monitored every two days. On Day 0, Day 2, Day 4, Day 6 (all before IL-23 injection), and Day 8, the thickness of the right ear of the mice was measured, and the appearance of the ear pinnae was observed and scored.
# The compounds were all prepared into a clear solution with 10% DMSO+[…] as a solvent for PO (oral gavage) administration. Administration volume parameters: 10 mL/kg based on the body weight of the mice.
# After grouping, IL-23 (3 μg/10 μL/mouse/day, QD) was injected intradermally into the right ears of the mice for 8 consecutive days (Day 0 to Day 7). Measurements of the thickness of the right ear and observations and scoring of the appearance of the ear pinnae were performed on Day 0, Day 2, Day 4, Day 6 (all before IL-23 injection), and Day 8. At the end of the experiment (Day 8), the left ear tissues of the mice from groups G4 to G10 (3 animals per group at each time point) were collected. The right ear, which had been modeled, was excised, an 8 mm ear punch was taken along the edge of the pinna, and its weight was measured. The excised right ear tissues were fixed in formalin for histopathological examination (H&E staining).
# Concurrent with model induction, corresponding drug treatment was given for administration. Except for the positive control drug (Ustekinumab), which was subcutaneously injected on Day 0 and Day 3 (once a day), control and test drugs for each dose group were orally administered by gavage twice a day at 6-hour intervals for 8 consecutive days (Day 0 to Day 7).
# The pathological scoring of mouse ear tissue sections was conducted according to the criteria in Table 33.
# The experimental data are represented as Mean±SD; statistical analysis was performed using IBM SPSS Statistics 21, with p<0.05 considered to indicate a statistically significant difference between the two groups. The effect of the test substance on the thickness of mouse ears in the IL-23 induced mouse pinna epidermal hyperplasia model is shown in Table 34. The effect of the test substance on the total score and AUC for […] induced mouse pinna epidermal hyperplasia is shown in Table 35.
# [4] = 5 mg/kg SC on Day 0 and Day 3, Day 0
# [5] = 5 mg/kg SC on Day 0 and Day 3, Day 2
# [6] = 5 mg/kg SC on Day 0 and Day 3, Day 4
# [7] = 5 mg/kg SC on Day 0 and Day 3, Day 6
# [8] = 5 mg/kg SC on Day 0 and Day 3, Day 8
# [9] = 5 mg/kg SC, right ear H&E sections
compound,measurement,setting,value
"CNC(=O)c1nnc(NC(=O)C2CC2)cc1Nc1cccc(-c2ccc(S(=N)(=O)C(C)C)nn2)c1OC (single isomer, unassigned) [WX-036A]",GI50,[1],0.0083 µM
"CNC(=O)c1nnc(NC(=O)C2CC2)cc1Nc1cccc(-c2ccc(S(=N)(=O)C(C)C)nn2)c1OC (single isomer, unassigned) [WX-036B]",GI50,[1],0.0173 µM
"CNC(=O)c1nnc(NC(=O)C2CC2)cc1Nc1cccc(-c2ccc(S(=N)(=O)C(C)C)nc2)c1OC (single isomer, unassigned) [WX-037A]",GI50,[1],0.015 µM
"CNC(=O)c1nnc(NC(=O)C2CC2)cc1Nc1cccc(-c2ccc(S(=N)(=O)C(C)C)nc2)c1OC (single isomer, unassigned) [WX-037B]",GI50,[1],0.017 µM
[2H]C([2H])([2H])NC(=O)c1cnc(NC(=O)C2CC2)cc1Nc1cccc(-c2ncc(S(=O)(=O)N3CCCC3)cn2)c1OC [Hydrochloride of WX-006],GI50,[1],0.0106 µM
[2H]C([2H])([2H])NC(=O)c1cnc(NC(=O)C2CC2)cc1Nc1cccc(-c2ccc(S(C)(=O)=O)cc2)c1OC [Hydrochloride of WX-007],GI50,[1],0.0095 µM
[2H]C([2H])([2H])NC(=O)c1nnc(NC(=O)C2CC2)cc1Nc1cccc(-c2ccc(P(C)(C)=O)cc2)c1OC [Hydrochloride of WX-008],GI50,[1],0.016 µM
[2H]C([2H])([2H])NC(=O)c1cnc(NC(=O)C2CC2)cc1Nc1cccc(-c2ccc(S(C)(=O)=NC)cc2)c1OC (centres unmarked) [Hydrochloride of WX-010],GI50,[1],0.0126 µM
CCN=S(=O)(c1cnc(-c2cccc(Nc3cc(NC(=O)C4CC4)nnc3C(=O)NC)c2OC)nc1)C(C)C (centres unmarked) [Hydrochloride of WX-015],GI50,[1],0.013 µM
CCN=S(=O)(c1ccc(-c2cccc(Nc3cc(NC(=O)C4CC4)nnc3C(=O)NC)c2OC)nc1)C(C)C (centres unmarked) [Hydrochloride of WX-016],GI50,[1],0.0117 µM
CNC(=O)c1nnc(NC(=O)C2CC2)cc1Nc1cccc(-c2ncc(S(=N)(=O)C(C)C)cn2)c1OC (centres unmarked) [WX-011],Vd,[2]; IV 1 mg/kg,0.7 L/kg
same,AUC(0-t),[2]; IV 1 mg/kg,4.79 µM·h
same,half-life,[2]; IV 1 mg/kg,3.2 h
same,C0,[2]; IV 1 mg/kg,5.42 µM
same,AUC(0-t),[2]; PO 10 mg/kg,25 µM·h
same,bioavailability,[2]; PO 10 mg/kg,52%
same,Cmax,[2]; PO 10 mg/kg,10.2 µM
same,Tmax,[2]; PO 10 mg/kg,0.5 h
same,Apparent clearance Cl,[2]; IV 1 mg/kg,6.6 mL/min/kg
CNC(=O)c1nnc(NC(=O)C2CC2)cc1Nc1cccc(-c2ccc(S(=N)(=O)C(C)C)cn2)c1OC (centres unmarked) [WX-012],Vd,[2]; IV 1 mg/kg,2.9 L/kg
same,AUC(0-t),[2]; IV 1 mg/kg,2.46 µM·h
same,half-life,[2]; IV 1 mg/kg,4.4 h
same,C0,[2]; IV 1 mg/kg,2.75 µM
same,AUC(0-t),[2]; PO 10 mg/kg,16.7 µM·h
same,bioavailability,[2]; PO 10 mg/kg,68%
same,Cmax,[2]; PO 10 mg/kg,12.4 µM
same,Tmax,[2]; PO 10 mg/kg,0.3 h
same,Apparent clearance Cl,[2]; IV 1 mg/kg,12.8 mL/min/kg
"Ustekinumab: positive control Ustekinumab (anti-IL-12/IL-23), Selleck, subcutaneously injected [reference compound]",Ear thickness (mm),[3]; [4],0.196 mm
same,Total score for epidermal hyperplasia of ear pinnae,[3]; [4],0.00
same,AUC of total score for epidermal hyperplasia of ear pinnae,"[3]; 5 mg/kg SC on Day 0 and Day 3, Day 0 to Day 8",2.83**
same,Ear thickness (mm),[3]; [5],0.277* mm
same,Total score for epidermal hyperplasia of ear pinnae,[3]; [5],0.00
same,Ear thickness (mm),[3]; [6],0.288** mm
same,Total score for epidermal hyperplasia of ear pinnae,[3]; [6],0.33*
same,Ear thickness (mm),[3]; [7],0.316** mm
same,Total score for epidermal hyperplasia of ear pinnae,[3]; [7],0.67**
same,Ear thickness (mm),[3]; [8],0.329* mm
same,Total score for epidermal hyperplasia of ear pinnae,[3]; [8],0.83**
same,Comprehensive pathological score,[3]; [9],3.50**
same,Pathological score: Degree of keratinization,[3]; [9],0.50**
same,Pathological score: Dermal thickness,[3]; [9],0.67
same,Pathological score: Epidermal thickness,[3]; [9],1.17**
same,Pathological score: Inflammatory cell infiltration,[3]; [9],1.17**
